{"source": "paper PMC4376724", "about": "“Differential Phenotypic and Functional Profiles of TcCA-2 -Specific Cytotoxic CD8^+ T Cells in the Asymptomatic versus Cardiac Phase in Chagasic Patients” (PLoS ONE, 2015)", "key": {"HLA-A*02:01": {"biological_target": "HLA-A*02:01 (Homo sapiens, UniProt P04439, D140Y/D185E/D98H/E176V/E277Q/G131W/G231S/I119V/I121R/I166T/I218V/L300P/L318F/N151K/N90K/P208A/P217A/Q86G/Q94H/R138H/R169H/T345S)", "test": "HLA-A*02:01 binding assay (surface stabilization on TAP-deficient T2 cells)", "conditions": "different peptide concentrations in duplicate, serum-free RPMI, overnight at room temperature, PE anti-HLA-A2 (BB7.2) flow cytometry, referred to 25 μM HB-ENV335-343 peptide", "experimental": "(§1) TAP-deficient T2 cells were used for the HLA-A*02:01 binding assays and the K562-A2 cells for the HLA-A*02:01 restriction assay. The cells were cultured in complete RPMI medium supplemented with 10% of inactivated Fetal Calf Serum (iFCS), 2 mM glutamine, and 100 U/ml penicillin. K562-A2 cells, expressing the HLA-A*02:01 molecule were cultured in the presence of […] of G-418, as previously described. The T2 and K562-A2 cells were kindly provided by Dr. Pedro Romero (University of Lausanne) and by Dr Peter Ponsaerts (University of Antwerp, with the permission of Dr. Cedrik Britten from Johanes Gutenberg-University Mainz), respectively.\nHLA-A*02:01 surface stabilization test was carried out as described in [42]. Briefly, TAP-deficient T2 cells were loaded with different concentrations of each peptide, in duplicate in serum-free RPMI medium, and incubated overnight at room temperature. Afterwards, the cells were stained with a PE-labeled HLA-A2-specific antibody (BB7.2 clone, BD biosciences) and analyzed by flow cytometry. The high-affinity HLA-A*02:01-binding peptide […] ([…]) was included as internal standard. Affinity data were calculated as the percentage of maximum complex stabilization, as described in [44]. The following equation was used: % of maximal stabilization = 100 x [(mean fluorescence with peptide)–(background mean fluorescence)]/[(mean fluorescence with 25 μM HBENV335-343 peptide)–(background mean fluorescence)]. Background value was obtained with cells incubated in the same conditions without peptide.\nThe percentage of maximal binding stabilization of these eight TcCA-2 peptides was evaluated using TAP-deficient T2 cells and different concentrations of each peptide. […] The maximal binding affinity is shown for each peptide in Table 1."}, "[1]": {"tested_on": "PBMCs from asymptomatic HLA-A*02:01 Chagas disease patients", "test": "HLA-A*02:01 restriction assay: peptide-pulsed K562-A2 cells as APC, IFN-γ secretion by patient PBMC", "type": "cell-based, human", "conditions": "range among patients with a positive response; K562-A2 pulsed with 1 mM peptide 1 h, 30 h co-culture; K562 level subtracted", "experimental": "as §1\nFor the screening of the recognition of TcCA-2 epitopes by Chagas disease patients, 10 HLA-A*02:01 adult patients in the asymptomatic phase of the disease (IND) were enrolled. For cytotoxicity, functional activity determinations and phenotypic characterization another group of 19 HLA-A*02:01 adults Chagas disease patients and 9 healthy donors were analyzed. These patients were at the chronic stage of the disease and were considered to be at the asymptomatic phase (IND, n = 8) if there was no evidence of having cardiac or gastrointestinal disorders. Chronic Chagas cardiomyopathy patients (CCC, n = 11) were stratified into G1 to G3 stages following Kuschnir classification according to clinical criteria and radiological, electrocardiographic and echocardiography analyses. The number of patients was the one recommended by the Hospital Ethical Committee. […] The patients were enrolled in both studies (functional and phenotypic characterization, IND n = 6 and CCC n = 7) when the available number of purified PBMC (limited by the cellular number isolated from each subject) was enough for both analyses. Another four CCC patients had to be enrolled to perform the phenotypic analysis in order to reach statistical significance.\nCytokine secretion (IL-4, IL-10, IL-6, IFN-γ, TNF-α) was determined in the supernatants of PBMC from Chagas disease patients and healthy donors, after in vitro stimulation with 1 μM of each peptide for 30 h at 37°C in RPMI supplemented with 10% iFBS as explained before. The secretion profile was determined by using a bead-based multiplex immunoassay system (Bio-Plex, Bio-Rad), following the manufacturer's instructions. The response was considered positive if an increase in the secretion of cytokines was at least three folds higher than the secretion by un-stimulated cells (basal secretion level) and at least, 4 pg/mL for IL-4, 2 pg/mL for IL-10, 15 pg/mL for IL-6 and 5 pg/mL for IFN-γ and TNF-α. The positive control consisted of 50 ng/mL Phorbol 12 myristate 13-acetate (PMA) and 500 ng/mL ionomycin (Sigma). Cytokine levels were quantified in each sample by using the Bio-Plex Manager software 4.1 (Bio-Rad). […]"}, "[2]": {"tested_on": "PBMCs from asymptomatic HLA-A*02:01 Chagas disease patients", "test": "HLA-A*02:01 restriction assay: peptide-pulsed K562-A2 cells as APC, IFN-γ secretion by patient PBMC", "type": "cell-based, human", "conditions": "K562-A2 cells pulsed with 1 mM peptide 1 h, co-cultured 30 h with PBMC of asymptomatic (IND) patients; positive = IFN-γ at least two folds un-stimulated cells"}}, "note": "“And” between values parts separate entries of the source, which are not always exact repeats. Identical values can stand only once."}
{"sequence": "AAAGDKLSL [TcCA-2_273-281]", "values": [{"measurement": "% maximal stabilization", "setting": "HLA-A*02:01", "value": 12.41, "unit": "%"}, {"measurement": "INF-γ secretion range", "setting": "[1]", "value": 8.6, "unit": "pg/mL"}, {"measurement": "Chagas disease patient: patients with positive response in relation with the total number of patients per assay", "setting": "[2]", "value": "1 out of 10 and 1/10"}]}
{"sequence": "ALQVTNHRYL [TcCA-2_657-666]", "values": [{"measurement": "% maximal stabilization", "setting": "HLA-A*02:01", "value": 21.49, "unit": "%"}, {"measurement": "INF-γ secretion range", "setting": "[1]", "value": "6.1 to 6.7", "unit": "pg/mL"}, {"measurement": "Chagas disease patient: patients with positive response in relation with the total number of patients per assay", "setting": "[2]", "value": "Two out of 9 and 2/9"}]}
{"sequence": "ALRNLRVFL [TcCA-2_607-615]", "values": [{"measurement": "% maximal stabilization", "setting": "HLA-A*02:01", "value": 29.54, "unit": "%"}, {"measurement": "INF-γ secretion range", "setting": "[1]", "value": "6.4 to 15.1", "unit": "pg/mL"}, {"measurement": "Chagas disease patient: patients with positive response in relation with the total number of patients per assay", "setting": "[2]", "value": "3 out of 9 and 3/9"}]}
{"sequence": "TVFDASRSTV [TcCA-2_442-451]", "values": [{"measurement": "% maximal stabilization", "setting": "HLA-A*02:01", "value": 24.44, "unit": "%"}, {"measurement": "INF-γ secretion range", "setting": "[1]", "value": "5.8 to 6.9", "unit": "pg/mL"}, {"measurement": "Chagas disease patient: patients with positive response in relation with the total number of patients per assay", "setting": "[2]", "value": "2 out of 10 and 2/10"}]}
